Assay results published in US20210244686A1, “Novel Systems And Methods For The Therapeutic Use of Cannabinoids or Cannabinoid Analogs to Increase The Lipid Order of Cholesterol Containing Cell Membranes” (The Regents of the University of Colorado a body corporate, priority 2018, published 2021).

How the values were obtained:
[1] = FRAP of NBD-cholesterol in synthetic membrane monolayers; settings: PC SUV derived monolayers, 20% cholesterol, 2% NBD-cholesterol
Description: CBD's ability to affect cholesterol orientation in both synthetic and cell derived ER membranes implies that CBD may contribute to increased lipid order. The ability of cholesterol oxidase assays to reveal alterations in lipid order has been previously reported in studies noting that cholesterol oxidase can preferentially target caveolar domains, which are ordered lipid domains. Another hallmark of lipid order is a decrease in lateral diffusion of lipids. As a result, the present inventors aimed to measure CBD's ability to perturb the lateral diffusion of fluorescently labelled cholesterol (NBD-cholesterol) in synthetic membranes. The present inventors deposited PC SUVs containing 20% moles of cholesterol and 2% moles NBD-cholesterol on glass-bottom multi-well imaging plates, followed by ultra-sonification to construct fluorescently labelled membrane monolayers. Using these monolayers and confocal microscopy, the inventor's performed fluorescence recovery after photobleaching (FRAP) experiments to measure the kinetics of recovery of fluorescent cholesterol. […] This effect of CBD on lateral diffusion could be rescued with simultaneous treatment with the lipid disordering agent DHA (FIGS. 6G, I). There are two proposed models for how DHA affects cholesterol in membranes. […]

SK-N-BE(2) cells [2] = assay: RNAseq transcriptomics of CBD response; assay type: cell-based, human; settings: 20 μM CBD
Procedure: In order to compare and contrast proteomic derived mechanistic components of the CBD response to that of transcriptomic components, the present inventors additionally performed RNAseq analysis of SK-N-BE(2) cells exposed to vehicle or 20 μM CBD at the time-points indicated in FIG. 1C. 5,643 differentially expressed genes were identified in the CBD response gene with a FDR<1%, which was further reduced to a list of 139 genes with an LFC>=1. […] While most of these annotations are supported by either the transcriptome or the proteome, dysregulation of cholesterol metabolism is supported by both. […] As a result of the agreement between proteomic and transcriptomic data, we focused our study thereafter on determining the role of cholesterol homeostasis in the CBD drug response.
Sequencing was performed on seven consecutive lanes. Median read counts per lane were ˜49,000 with a CV of ˜7%. Starting with 228 fastq files, each lane set was concatenated per condition. Using Trimmomtic-0.36, base pairs were trimmed if they dropped below a PHRED score of 15 within a sliding window of 4 bp. Remaining reads shorter than 35 base pairs were removed. Illumina adapter sequences were also clipped using Trimmomatic. […] Read alignment was accomplished using Tophat-2.0.13 and Cufflinks/Cuffdiff 2.2.1 was used for FPKM quantitation and differential expression analysis per time point.

SREBP2 = assay: Western blot analysis of SREBP2 proteolytic processing; assay type: cell-based, human; settings: 24 hr
Description: To further investigate the role of SREBP/SCAP signaling in the CBD response, the present inventors used western blot analysis to probe whether SREBP2 proteolytic processing is affected by CBD. […] The present inventors performed this assay with cells grown in LDL containing FBS (elevated cholesterol) and LDL depleted FBS (cholesterol starved). […] However, the inventors also detect evidence that although cholesterol precursors are accumulating in a CBD dependent manner, cholesterol itself appears to experience a net decrease in de novo synthesis. This is evident in the overall decrease in newly synthesized ^13C labeled cholesterol in CBD treated cells (FIG. 3B) and implies an apparent blockage in the final step of cholesterol biosynthesis, which is catalyzed by either DHCR24 or DHCR7 in the ER.
Cells were harvested at 24 hours by trypsinization and counted using a hemocytometer to determine cell concentration. 4×10^6 cells from each sample were lysed using 200 μL SDS lysis buffer (20 mM Tris pH 6.8, 4% SDS, 0.5% beta mercaptoethanol) and lysates were boiled for 5 minutes 95° C. and subsequently sonicated at 40% power 10 cycles 10 seconds on/off. 10 μL of lysate was loaded into each lane of a 12% SDS PAGE gel. Immunoblotting of protein transferred to nitrocellulose membrane was performed using anti-SREBP2 (Cayman Chemical #10007663).

SK-N-BE(2) cells [3] = assay: Live cell microscopy apoptosis assay (caspase 3/7 dye)
Procedure: (§1) To accurately measure cellular apoptosis over time, the present inventors performed live cell microscopy experiments with cells loaded with both DNA and caspase 3/7 dyes, which enables continuous and precise quantification of apoptosis at the single cell level.
(§2) Cell viability for SK-N-BE(2) cells was conducted using a fluorometric cell viability assay using Resazurin (PromoKine) according to the manufacturer's instructions. […] Dyes were added at the time of seeding, 18-24 hours prior to performing experiments.
(§3) Experiments were performed using an ImageXpress MicroXL microscope and a 10× objective, where images were acquired for each well at the indicated time-points using DAPI and FITC filter sets. […] Percent apoptotic cells was calculated from the sum of apoptotic cell pixels divided by the sum of all cell pixels for each field of view.

HaCaT cells = assay: as above; settings: increasing 25-hydroxy cholesterol, constant CBD
Procedure: as §1, §2, §3

C=C(C)[C@@H]1CCC(C)=C[C@H]1c1c(O)cc(CCCCC)cc1O [CBD, cannabidiol]
FRAP kinetics (lateral diffusion of fluorescent cholesterol) [1]: significantly reduced | HMG-CR expression (SK-N-BE(2) cells [2]): transcriptional activation | magnitude of SREBP2 cleavage activation versus U18666A or Atorvastatin (SREBP2; U18666A 10 μM, Atorvastatin 10 μM): lower in magnitude | SREBP2 cleavage (SREBP2; both cholesterol starved and elevated cholesterol conditions): dose dependent activation | effect on DHA induced apoptosis (SK-N-BE(2) cells [3]; DHA 75 μM with MBCD 300 μM or CBD 6.25 μM): completely cancel the apoptotic effects | sensitivity of CBD exposed cells to 25-hydroxy cholesterol induced apoptosis (SK-N-BE(2) cells [3]; increasing 25-hydroxy cholesterol, constant CBD): clear dose dependent sensitivity | sensitivity of CBD exposed cells to 25-hydroxy cholesterol induced apoptosis, relative to SK-N-BE(2) (HaCaT cells): more dramatically observed
